In patent US8580526B2, “Methods of using GPR119 receptor to identify compounds which stimulate glucose-dependent insulinotropic peptide secretion” (Arena Pharmaceuticals, Inc., priority 2006, dated 2013):

Columns and labels:
GPR119 [1] = target: T1, GPR119 (Mus musculus, UniProt Q7TQP3); assay: Pharmacodynamic analysis of effect of oral GPR119 agonist on blood (plasma total) GIP level in wild-type mice, rodent GIP ELISA; assay type: in vivo, C57blk/6 male mice; parameters: Effect of Administration of GPR119 Agonist on Blood GIP Level in Wild-Type Mice; endogenous in cells; host or cells: whole animal: C57blk/6 male mice, oral dosing; settings: 20 mg/kg per orally, 30 min before glucose bolus 3 g/kg, FIG. 1A
T1 sequence (Q7TQP3 1-335): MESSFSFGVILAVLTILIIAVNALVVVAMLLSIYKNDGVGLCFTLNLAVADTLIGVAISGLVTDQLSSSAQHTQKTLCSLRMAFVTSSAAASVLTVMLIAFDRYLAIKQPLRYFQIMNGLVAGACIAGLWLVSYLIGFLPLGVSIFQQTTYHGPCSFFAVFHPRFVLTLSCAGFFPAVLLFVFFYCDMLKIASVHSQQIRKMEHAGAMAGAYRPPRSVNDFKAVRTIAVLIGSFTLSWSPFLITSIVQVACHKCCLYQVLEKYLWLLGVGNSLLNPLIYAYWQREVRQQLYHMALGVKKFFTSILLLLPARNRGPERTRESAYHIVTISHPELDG
Procedure: A. C57blk/6 male mice were fasted for 18 hours, and randomly assigned into fourteen groups with n=6 for each group. Mice were administered per orally with vehicle (PET; 80% PEG400, 10% ethanol, 10% Tween80) or with a GPR119 agonist in accordance with the present invention (Compound 1; (2-Fluoro-4-methanesulfonyl-phenyl)-{6-[4-(3-isopropyl-1,2,4]oxadiazol-5-yl)-piperidin-1-yl]-5-nitro-pyrimidin-4-yl}-amine) at 20 mg/kg, as indicated in FIG. 1A. Thirty minutes after treatment, a glucose bolus at 3 g/kg were delivered per orally, and plasma were collected at 0 (no glucose bolus), 2, 5, 10, 20, 40 and 60 minutes after glucose bolus. Plasma GIP levels were determined by using a rodent GIP ELISA kit purchased from Linco Research Laboratory [Rat/Mouse Gastric Inhibitory Polypeptide (Total) ELISA Catalog #EZRMGIP-55K], following instructions provided by the supplier. […]
B. C57blk/6 male mice were fasted for 18 hours, and randomly assigned into fourteen groups with n=6 for each group. […] Plasma GIP levels were determined by using a rodent GIP ELISA kit purchased from Linco Research Laboratory [Rat/Mouse Gastric Inhibitory Polypeptide (Total) ELISA Catalog #EZRMGIP-55K], following instructions provided by the supplier. […] Mean values of GIP concentration were calculated based on results with six mice in each group and shown as mean±SEM. […]

GPR119 [2] = target: T1, GPR119; assay: Effect of oral GPR119 agonist on blood GIP level in GPR119-deficient (knockout) mice compared to wild-type mice, rodent GIP ELISA; assay type: in vivo, GPR119-deficient male mice and wild-type littermates; parameters: endogenous in cells; host or cells: whole animal: GPR119-deficient male mice and wild-type littermates, oral dosing; settings: 20 mg/kg per orally, FIG. 2A
Procedure: A. GPR119-deficient male mice and wild-type littermates were fasted for 18 hours. Mice were administered per orally with vehicle (PET; 80% PEG400, 10% ethanol, 10% Tween80) or with a GPR119 agonist in accordance with the present invention (Compound 1; (2-Fluoro-4-methanesulfonyl-phenyl)-{6-[4-(3-isopropyl-[1,2,4]oxadiazol-5-yl)-piperidin-1-yl]-5-nitro-pyrimidin-4-yl}-amine) at 20 mg/kg, as indicated (n=5). Thirty minutes after treatment, blood (100 microliter) was collected via retro orbital vein of the eye (time 0) followed by a glucose bolus at 3 g/kg (per orally). Five minutes after I delivering glucose, another blood sample (100 microliter) was collected (time 5 minutes). Plasma were collected after centrifugation and GIP levels were determined by using a rodent GIP ELISA kit purchased from Linco Research Laboratory [Rat/Mouse Gastric Inhibitory Polypeptide (Total) ELISA Catalog #EZRMGIP-55K], following instructions provided by the supplier. […]
B. GPR119-deficient male mice and wild-type littermates were fasted for 18 hours. […] Plasma were collected after centrifugation and GIP levels were determined by using a rodent GIP ELISA kit purchased from Linco Research Laboratory [Rat/Mouse Gastric Inhibitory Polypeptide (Total) ELISA Catalog #EZRMGIP-55K], following instructions provided by the supplier. […]

plasma total GIP (GPR119 [1]; plasma at 0 (no glucose bolus), 2, 5, 10, 20, 40, 60 min, vs vehicle PET): stimulated plasma total GIP
dependence on GPR119 of the increase of glucose-independent and glucose-dependent level of GIP in the blood (GPR119 [2]; GPR119-deficient vs wild-type mice, time 0 and 5 min after glucose bolus 3 g/kg): functional GPR119 receptor was necessary
Structure (SMILES): CC(C)c1noc(C2CCN(c3ncnc(Nc4ccc(S(C)(=O)=O)cc4F)c3[N+](=O)[O-])CC2)n1 [Compound 1, (2-Fluoro-4-methanesulfonyl-phenyl)-{6-[4-(3-isopropyl-[1,2,4]oxadiazol-5-yl)-piperidin-1-yl]-5-nitro-pyrimidin-4-yl}-amine]
glucose-dependent and glucose-independent level of GIP in the blood (GPR119 [1]; plasma at 0 (no glucose bolus) to 60 min): increased both a glucose-dependent and a glucose-independent level of GIP
plasma total GIP in wild-type mice (GPR119 [2]; blood 30 min after treatment (time 0) and 5 min after glucose bolus 3 g/kg): stimulated plasma total GIP in the wild-type mice
